Laboratory results: patent US10463670B2, “Use of non-peptide NK1 antagonists in a predetermined dose for the treatment of cancer” (SERVICIO ANDALUZ DE SALUD, priority 2013, dated 2019)

What was measured:
[1] = test system: human glioma; reference GAMG; experiment: Glioma GAMG tumours implanted s.c. in nude mice, Aprepitant alone; type: in vivo
Protocol: (§1) Immunocompromised female mice, 5-6 weeks of age were used, nu/nu Balb/c nude mice, provided by Harlan Iberica Barcelona (Spain). They were kept at 24° C. and in sterile conditions with food and water “ad libitum”. They were injected with 2×10^7 tumour cells, corresponding to cancer (human lung cancer, reference HCC-44 supplied by DSMZ) in 200 μl of PBS subcutaneous route. The tumour size was measured and the mice were evaluated for their state of health and weight daily. The mice were randomized in nine groups when the tumours reached a volume of 75 mm^3. One of the groups was treated with 200 μl of placebo (control group) and the eight remaining groups with doses of 10 (group 1), 20 (group 2), 30 (group 3), 40 (group 4), 50 (group 5), 60 (group 6), 70 (group 7) and 80 (group 8) mg per kilogram of weight and day of the NK1 receptor antagonist Aprepitant. 3 animals were treated per group, during 28 days. All the mice were sacrificed at the end of the experiment.
(§2) Immunocompromised female mice, 5-6 weeks of age were used, in the same conditions as explained in example 1. They were injected with 2×10^7 tumour cells, corresponding to a glial cell line tumour of the central nervous system human (human glioma; reference GAMG; supplied by DSMZ) in 200 μl of PBS by subcutaneous route. The tumour size was measured and the mice were evaluated for their state of health and weight daily. The mice were randomized in nine groups when the tumours reached a volume of 75 mm^3. One of the groups was treated with 200 μl of placebo (control group) and the eight remaining groups with doses of 10 (group 1), 20 (group 2), 30 (group 3), 40 (group 4), 50 (group 5), 60 (group 6), 70 (group 7) and 80 (group 8) mg per kilogram of weight and day of the NK1 receptor antagonist Aprepitant. 3 animals were treated per group, during 28 days. All the mice were sacrificed at the end of the experiment.

[2] = test system: human fibrosarcoma; reference HT-1080; experiment: Fibrosarcoma HT-1080 tumours implanted s.c. in nude mice, Aprepitant alone; type: in vivo
Protocol: as §1
as §2, with “mesenchymal” for “glial”, “tumour” for “tumour of the central nervous system human”, “fibrosarcoma;” for “glioma;”, “HT-1080;” for “GAMG;”

[3] = test system: Human lung cancer A-427; experiment: MTS cell proliferation, nanomolar antagonist, A-427; type: cell-based; conditions: Aprepitant 1, 5 and 7 nM, vs cells grown in the absence of antagonist, time dependant
Protocol: Cell cultures of various commercial tumour cell lines stated in table 13 were used. [table] […] The number of cells was quantified using a Coulter counter. […] The culture plates were grown in the presence of increasing concentrations of non-peptide NK1 receptor antagonists. To obtain the staining in the proliferation assays, 20 μl of MTS were added to each one of the wells of the cell culture plates 90 minutes before reading the samples in a multiscan spectrophotometer (TECAN Spectra classic, Barcelona, Spain) at 492 nm (assay wavelength) and 690 nm (reference wavelength). The different doses were tested in duplicate and each experiment was performed in triplicate. The antagonist Aprepitant was used at the following concentrations: 1 nanomolar -nM-, 5 nanomolar -nM- and 7 nanomolar -nM-. […] As proliferation control, the cells were grown in the absence of said antagonist. This is expressed in FIGS. 1 to 10.

[4] = Aprepitant 10 mg/kg/day, 7 days
[5] = Aprepitant 10 mg/kg/day, 14 days
[6] = Aprepitant 10 mg/kg/day, 21 days
[7] = Aprepitant 10 mg/kg/day, 28 days
[8] = Aprepitant 20 mg/kg/day, 7 days
[9] = Aprepitant 20 mg/kg/day, 14 days
[10] = Aprepitant 20 mg/kg/day, 21 days
[11] = Aprepitant 20 mg/kg/day, 28 days
[12] = Aprepitant 30 mg/kg/day, 7 days
[13] = Aprepitant 30 mg/kg/day, 14 days
[14] = Aprepitant 30 mg/kg/day, 21 days
[15] = Aprepitant 30 mg/kg/day, 28 days
[16] = Aprepitant 40 mg/kg/day, 7 days
[17] = Aprepitant 40 mg/kg/day, 14 days
[18] = Aprepitant 40 mg/kg/day, 21 days
[19] = Aprepitant 40 mg/kg/day, 28 days
[20] = Aprepitant 50 mg/kg/day, 7 days
[21] = Aprepitant 50 mg/kg/day, 14 days
[22] = Aprepitant 50 mg/kg/day, 21 days
[23] = Aprepitant 50 mg/kg/day, 28 days
[24] = Aprepitant 60 mg/kg/day, 7 days
[25] = Aprepitant 60 mg/kg/day, 14 days
[26] = Aprepitant 60 mg/kg/day, 21 days
[27] = Aprepitant 60 mg/kg/day, 28 days
[28] = Aprepitant 70 mg/kg/day, 7 days
[29] = Aprepitant 70 mg/kg/day, 14 days
[30] = Aprepitant 70 mg/kg/day, 21 days
[31] = Aprepitant 70 mg/kg/day, 28 days
[32] = Aprepitant 80 mg/kg/day, 7 days
[33] = Aprepitant 80 mg/kg/day, 14 days
[34] = Aprepitant 80 mg/kg/day, 21 days
[35] = Aprepitant 80 mg/kg/day, 28 days

C[C@@H](O[C@H]1OCCN(Cc2n[nH]c(=O)[nH]2)[C@H]1c1ccc(F)cc1)c1cc(C(F)(F)F)cc(C(F)(F)F)c1 [Aprepitant]
Tumour size (mean volume of the tumour) [1, 4]: 205 ± 3 cubic millimeters | Tumour size (mean volume of the tumour) [1, 5]: 185 ± 6 cubic millimeters | Tumour size (mean volume of the tumour) [1, 6]: 170 ± 7 cubic millimeters | Tumour size (mean volume of the tumour) [1, 7]: 155 ± 4 cubic millimeters | Tumour size (mean volume of the tumour) [1, 8]: 190 ± 4 cubic millimeters | Tumour size (mean volume of the tumour) [1, 9]: 160 ± 7 cubic millimeters | Tumour size (mean volume of the tumour) [1, 10]: 150 ± 6 cubic millimeters | Tumour size (mean volume of the tumour) [1, 11]: 125 ± 5 cubic millimeters | Tumour size (mean volume of the tumour) [1, 12]: 160 ± 4 cubic millimeters | Tumour size (mean volume of the tumour) [1, 13]: 145 ± 7 cubic millimeters | Tumour size (mean volume of the tumour) [1, 14]: 120 ± 6 cubic millimeters | Tumour size (mean volume of the tumour) [1, 15]: 105 ± 4 cubic millimeters | Tumour size (mean volume of the tumour) [1, 16]: 155 ± 6 cubic millimeters | Tumour size (mean volume of the tumour) [1, 17]: 125 ± 5 cubic millimeters | Tumour size (mean volume of the tumour) [1, 18]: 110 ± 5 cubic millimeters | Tumour size (mean volume of the tumour) [1, 19]: 90 ± 9 cubic millimeters | Tumour size (mean volume of the tumour) [1, 20]: 125 ± 5 cubic millimeters | Tumour size (mean volume of the tumour) [1, 21]: 110 ± 5 cubic millimeters | Tumour size (mean volume of the tumour) [1, 22]: 100 ± 5 cubic millimeters | Tumour size (mean volume of the tumour) [1, 23]: 80 ± 8 cubic millimeters | Tumour size (mean volume of the tumour) [1, 24]: 95 ± 5 cubic millimeters | Tumour size (mean volume of the tumour) [1, 25]: 85 ± 6 cubic millimeters | Tumour size (mean volume of the tumour) [1, 26]: 60 ± 6 cubic millimeters | Tumour size (mean volume of the tumour) [1, 27]: 50 ± 7 cubic millimeters | Tumour size (mean volume of the tumour) [1, 28]: 75 ± 6 cubic millimeters | Tumour size (mean volume of the tumour) [1, 29]: 60 ± 5 cubic millimeters | Tumour size (mean volume of the tumour) [1, 30]: 55 ± 5 cubic millimeters | Tumour size (mean volume of the tumour) [1, 31]: 35 ± 8 cubic millimeters | Tumour size (mean volume of the tumour) [1, 32]: 60 ± 3 cubic millimeters | Tumour size (mean volume of the tumour) [1, 33]: 45 ± 6 cubic millimeters | Tumour size (mean volume of the tumour) [1, 34]: 25 ± 7 cubic millimeters | Tumour size (mean volume of the tumour) [1, 35]: 15 ± 10 cubic millimeters | Tumour size (mean volume of the tumour) [2, 4]: 220 ± 4 cubic millimeters | Tumour size (mean volume of the tumour) [2, 5]: 205 ± 4 cubic millimeters | Tumour size (mean volume of the tumour) [2, 6]: 195 ± 6 cubic millimeters | Tumour size (mean volume of the tumour) [2, 7]: 170 ± 6 cubic millimeters | Tumour size (mean volume of the tumour) [2, 8]: 195 ± 5 cubic millimeters | Tumour size (mean volume of the tumour) [2, 9]: 180 ± 5 cubic millimeters | Tumour size (mean volume of the tumour) [2, 10]: 165 ± 7 cubic millimeters | Tumour size (mean volume of the tumour) [2, 11]: 150 ± 7 cubic millimeters | Tumour size (mean volume of the tumour) [2, 12]: 175 ± 5 cubic millimeters | Tumour size (mean volume of the tumour) [2, 13]: 155 ± 6 cubic millimeters | Tumour size (mean volume of the tumour) [2, 14]: 135 ± 5 cubic millimeters | Tumour size (mean volume of the tumour) [2, 15]: 140 ± 4 cubic millimeters | Tumour size (mean volume of the tumour) [2, 16]: 160 ± 4 cubic millimeters | Tumour size (mean volume of the tumour) [2, 17]: 150 ± 3 cubic millimeters | Tumour size (mean volume of the tumour) [2, 18]: 120 ± 5 cubic millimeters | Tumour size (mean volume of the tumour) [2, 19]: 110 ± 6 cubic millimeters | Tumour size (mean volume of the tumour) [2, 20]: 145 ± 5 cubic millimeters | Tumour size (mean volume of the tumour) [2, 21]: 135 ± 7 cubic millimeters | Tumour size (mean volume of the tumour) [2, 22]: 100 ± 3 cubic millimeters | Tumour size (mean volume of the tumour) [2, 23]: 100 ± 7 cubic millimeters | Tumour size (mean volume of the tumour) [2, 24]: 135 ± 7 cubic millimeters | Tumour size (mean volume of the tumour) [2, 25]: 120 ± 6 cubic millimeters | Tumour size (mean volume of the tumour) [2, 26]: 90 ± 8 cubic millimeters | Tumour size (mean volume of the tumour) [2, 27]: 85 ± 4 cubic millimeters | Tumour size (mean volume of the tumour) [2, 28]: 120 ± 8 cubic millimeters | Tumour size (mean volume of the tumour) [2, 29]: 100 ± 4 cubic millimeters | Tumour size (mean volume of the tumour) [2, 30]: 85 ± 6 cubic millimeters | Tumour size (mean volume of the tumour) [2, 31]: 80 ± 7 cubic millimeters | Tumour size (mean volume of the tumour) [2, 32]: 100 ± 4 cubic millimeters | Tumour size (mean volume of the tumour) [2, 33]: 90 ± 8 cubic millimeters | Tumour size (mean volume of the tumour) [2, 34]: 70 ± 8 cubic millimeters | Tumour size (mean volume of the tumour) [2, 35]: 65 ± 9 cubic millimeters | Proliferation of tumour cells (MTS) [3]: increase was observed of proliferation
